According to PubChem BioAssay AID1259407 (Chemical Carcinogenesis Research Information System (CCRIS), 2018):
Calls of active or inactive are those of the source. No rule for the calls is given here.

System: CCRIS mutagenicity, Ames/micronucleus/aberration tests
Test: CCRIS mutagenicity studies
[1] = Test System: AMES SALMONELLA TYPHIMURIUM, Strain/Indicator: TA98, Metabolic Activation: NONE, Method: PREINCUBATION

For O=S1OCC2C(CO1)C1(Cl)C(Cl)=C(Cl)C2(Cl)C1(Cl)Cl (stereo not given), the mutagenic call (End Point: IN VITRO CHROMOSOMAL ABERRATIONS, Test System: HUMAN PERIPHERAL BLOOD LYMPHOCYTES, Metabolic Activation: NONE) was “active; positive (structural changes)”, the mutagenic call (End Point: In vitro chromosomal aberrations, Test System: Human (one male) lymphocytes, Metabolic Activation: None) was “inactive; negative. (200 ug/ml was toxic to the cells.)” and the mutagenic call (End Point: In vitro chromosomal aberrations, Test System: Human (one male) lymphocytes, Metabolic Activation: Rat, Liver, S-9) was “inactive; negative. (200 ug/ml was toxic to the cells.)”. The mutagenic call (End Point: In vitro chromosomal aberrations, Test System: Human lymphocytes, Metabolic Activation: None) was “active; positive (structural changes and ploidy)”, the mutagenic call (Test System: AMES SALMONELLA TYPHIMURIUM, Strain/Indicator: TA97A, Metabolic Activation: NONE, Method: PREINCUBATION) was “active; positive” and the mutagenic call (Test System: AMES SALMONELLA TYPHIMURIUM, Strain/Indicator: TA97A, Metabolic Activation: NONE, Method: STANDARD PLATE) was “inactive; negative”. For the same molecule, the mutagenic call (Test System: AMES SALMONELLA TYPHIMURIUM, Strain/Indicator: TA97A, Metabolic Activation: RAT, CECAL CELL FREE EXTRACT, Method: STANDARD PLATE) was “inactive; negative”, the mutagenic call (Test System: AMES SALMONELLA TYPHIMURIUM, Strain/Indicator: TA97A, Metabolic Activation: RAT, LIVER, S-9, AROCLOR 1254, Method: STANDARD PLATE) was “inactive; negative” and the mutagenic call (Test System: AMES SALMONELLA TYPHIMURIUM, Strain/Indicator: TA97A, Metabolic Activation: RAT, LIVER, S-9, PHENOBARBITAL, Method: PREINCUBATION) was “active; positive”. For the same molecule, the mutagenic call (Test System: AMES SALMONELLA TYPHIMURIUM, Strain/Indicator: TA97A, Metabolic Activation: RAT, LIVER, S-9, PHENOBARBITAL, Method: STANDARD PLATE) was “inactive; negative”, the mutagenic call (Test System: AMES SALMONELLA TYPHIMURIUM, Strain/Indicator: TA98, Metabolic Activation: HAMSTER, LIVER, S-9, AROCLOR 1254 (10%), Method: PREINCUBATION) was “inactive; negative” and the mutagenic call [1] was “inactive; negative”. The mutagenic call (Test System: AMES SALMONELLA TYPHIMURIUM, Strain/Indicator: TA98, Metabolic Activation: NONE, Method: STANDARD PLATE) was “inactive; negative”, the mutagenic call (Test System: AMES SALMONELLA TYPHIMURIUM, Strain/Indicator: TA98, Metabolic Activation: RAT, CECAL CELL FREE EXTRACT, Method: STANDARD PLATE) was “inactive; negative” and the mutagenic call (Test System: AMES SALMONELLA TYPHIMURIUM, Strain/Indicator: TA98, Metabolic Activation: RAT, LIVER, S-9, AROCLOR 1254 (10%), Method: PREINCUBATION) was “inactive; negative”. For the same molecule, the mutagenic call (Test System: AMES SALMONELLA TYPHIMURIUM, Strain/Indicator: TA98, Metabolic Activation: RAT, LIVER, S-9, AROCLOR 1254, Method: STANDARD PLATE) was “inactive; negative”, the mutagenic call (Test System: AMES SALMONELLA TYPHIMURIUM, Strain/Indicator: TA98, Metabolic Activation: RAT, LIVER, S-9, PHENOBARBITAL, Method: PREINCUBATION) was “inactive; negative” and the mutagenic call (Test System: AMES SALMONELLA TYPHIMURIUM, Strain/Indicator: TA98, Metabolic Activation: RAT, LIVER, S-9, PHENOBARBITAL, Method: STANDARD PLATE) was “inactive; negative”. For the same molecule, the mutagenic call (Test System: AMES SALMONELLA TYPHIMURIUM, Strain/Indicator: TA100, Metabolic Activation: HAMSTER, LIVER, S-9, AROCLOR 1254 (10%), Method: PREINCUBATION) was “inactive; negative”, the mutagenic call (Test System: AMES SALMONELLA TYPHIMURIUM, Strain/Indicator: TA100, Metabolic Activation: NONE, Method: PREINCUBATION) was “inactive; negative” and the mutagenic call (Test System: AMES SALMONELLA TYPHIMURIUM, Strain/Indicator: TA100, Metabolic Activation: NONE, Method: STANDARD PLATE) was “inactive; negative”. The mutagenic call (Test System: AMES SALMONELLA TYPHIMURIUM, Strain/Indicator: TA100, Metabolic Activation: RAT, CECAL CELL FREE EXTRACT, Method: STANDARD PLATE) was “inactive; negative”, the mutagenic call (Test System: AMES SALMONELLA TYPHIMURIUM, Strain/Indicator: TA100, Metabolic Activation: RAT, LIVER, S-9, AROCLOR 1254 (10%), Method: PREINCUBATION) was “inactive; negative” and the mutagenic call (Test System: AMES SALMONELLA TYPHIMURIUM, Strain/Indicator: TA100, Metabolic Activation: RAT, LIVER, S-9, AROCLOR 1254, Method: STANDARD PLATE) was “inactive; negative”. For the same molecule, the mutagenic call (Test System: AMES SALMONELLA TYPHIMURIUM, Strain/Indicator: TA100, Metabolic Activation: RAT, LIVER, S-9, PHENOBARBITAL, Method: PREINCUBATION) was “inactive; negative”, the mutagenic call (Test System: AMES SALMONELLA TYPHIMURIUM, Strain/Indicator: TA100, Metabolic Activation: RAT, LIVER, S-9, PHENOBARBITAL, Method: STANDARD PLATE) was “inactive; negative” and the mutagenic call (Test System: AMES SALMONELLA TYPHIMURIUM, Strain/Indicator: TA102, Metabolic Activation: NONE, Method: STANDARD PLATE) was “inactive; negative”. For the same molecule, the mutagenic call (Test System: AMES SALMONELLA TYPHIMURIUM, Strain/Indicator: TA102, Metabolic Activation: RAT, LIVER, S-9, PHENOBARBITAL, Method: PREINCUBATION) was “inactive; negative”, the mutagenic call (Test System: AMES SALMONELLA TYPHIMURIUM, Strain/Indicator: TA102, Metabolic Activation: RAT, LIVER, S-9, PHENOBARBITAL, Method: STANDARD PLATE) was “inactive; negative” and the mutagenic call (Test System: AMES SALMONELLA TYPHIMURIUM, Strain/Indicator: TA1535, Metabolic Activation: HAMSTER, LIVER, S-9, AROCLOR 1254 (10%), Method: PREINCUBATION) was “inactive; negative”. For the same molecule, the mutagenic call (Test System: AMES SALMONELLA TYPHIMURIUM, Strain/Indicator: TA1535, Metabolic Activation: NONE, Method: PREINCUBATION) was “inactive; negative”, the mutagenic call (Test System: AMES SALMONELLA TYPHIMURIUM, Strain/Indicator: TA1535, Metabolic Activation: RAT, LIVER, S-9, AROCLOR 1254 (10%), Method: PREINCUBATION) was “inactive; negative” and the mutagenic call (Test System: AMES SALMONELLA TYPHIMURIUM, Strain/Indicator: TA1537, Metabolic Activation: HAMSTER, LIVER, S-9, AROCLOR 1254 (10%), Method: PREINCUBATION) was “inactive; negative”. For the same molecule, the mutagenic call (Test System: AMES SALMONELLA TYPHIMURIUM, Strain/Indicator: TA1537, Metabolic Activation: NONE, Method: PREINCUBATION) was “inactive; negative”, the mutagenic call (Test System: AMES SALMONELLA TYPHIMURIUM, Strain/Indicator: TA1537, Metabolic Activation: RAT, LIVER, S-9, AROCLOR 1254 (10%), Method: PREINCUBATION) was “inactive; negative” and the mutagenic call (Test System: ESCHERICHIA COLI, Strain/Indicator: AB1157, Metabolic Activation: NONE, Method: PREINCUBATION) was “active; positive”. For the same molecule, the mutagenic call (Test System: UDS Rat hepatocytes, Strain/Indicator: Primary hepatocytes. Thy incorp, Metabolic Activation: None, Method: Autoradiography) was “inactive; negative. (toxic at 51 ug/ml)”.
In the case of O=[N+]([O-])c1ccc2nc3c([N+](=O)[O-])cccc3nc2c1, the mutagenic call (Test System: AMES SALMONELLA TYPHIMURIUM, Strain/Indicator: TA98(NR), Metabolic Activation: NONE, Method: PREINCUBATION) is reported as “active; positive” and the mutagenic call [1] is reported as “active; positive”.
CC(=O)CCN(C)N=O was tested, and the mutagenic call (Test System: CHINESE HAMSTER V-79, Strain/Indicator: V-79/OUABAIN, Metabolic Activation: HAMSTER, HEPATOCYTES, Method: CELL-MEDIATED) was “active; positive”.
